The text below walks through data of ChEMBL document CHEMBL3351493, “Beta-aminoketones as prodrugs for selective irreversible inhibitors of type-1 methionine aminopeptidases” (Bioorg Med Chem Lett, 2014).

SMILES strings stand for the structures. pIC50: −log10 of the molar value. The source made the active and inactive calls. The calls are words filed in the database; no cut-off is given here.

One series relates to A-431. Nature of the series: Cytotoxicity against human A431 cells at 1.6 to 100 ug/ml after 72 hrs by crystal violet assay. It counts as functional, cell-based.
Another series concerns Calu-6. Nature of the series: Cytotoxicity against human Calu6 cells at 1.6 to 100 ug/ml after 72 hrs by crystal violet assay. It counts as functional, cell-based.
The test system of the next series is BT-474. The series is described as follows: Cytotoxicity against human BT474 cells at 1.6 to 100 ug/ml after 72 hrs by crystal violet assay. It is filed as functional, cell-based.
Series [1] addresses Methionine aminopeptidase 2 (Homo sapiens, UniProt P50579). Particulars: sf9.
Description: Inhibition of human MetAP-2 expressed in Sf9 cells incubated for 60 mins before MGMM substrate addition by fluorescence assay
In another series the test system is CAPAN-1. The series is described as follows: Cytotoxicity against human Capan1 cells at 1.6 to 100 ug/ml after 72 hrs by crystal violet assay. It is filed as functional, cell-based.
A short description of series [2]: Half life assessed as decomposition into amines and unsaturated ketones at 250 uM in 50 mM Tris/maleate pH 7.5 buffer by HPLC method. It counts as physicochemical. As to conditions: for half-life at 250 µM: Tris/maleate buffer, pH 7.5; for t1/2: buffer, pH 7.5, 250 µM.
For series [3], the target named is Methionine aminopeptidase (Staphylococcus aureus (strain COL), UniProt Q5HEN6). Nature of the series: Inhibition of N-terminal poly-His-tagged Staphylococcus aureus COL MetAP expressed in Escherichia coli BL21(DE3) incubated for 30 mins before MGMM substrate addition by fluorescence assay. Also noted: species or system Staphylococcus aureus subsp. aureus COL. As to conditions: for pIC50: read-out: IC50.
Sequence of Methionine aminopeptidase (Staphylococcus aureus (strain COL), UniProt Q5HEN6) (Q5HEN6 whole entry): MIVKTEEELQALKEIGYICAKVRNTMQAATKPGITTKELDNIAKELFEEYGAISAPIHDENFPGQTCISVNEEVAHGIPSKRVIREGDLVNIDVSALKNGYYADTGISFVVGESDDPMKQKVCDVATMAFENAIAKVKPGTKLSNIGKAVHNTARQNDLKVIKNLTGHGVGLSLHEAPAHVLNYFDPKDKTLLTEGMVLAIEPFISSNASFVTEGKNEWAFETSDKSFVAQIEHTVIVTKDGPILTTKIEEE

In the next series the test system is A 172. Nature of the series: Cytotoxicity against human A172 cells at 1.6 to 100 ug/ml after 72 hrs by crystal violet assay. It is filed as functional, cell-based.
Series [4] concerns the target T1, Methionine aminopeptidase (Escherichia coli K-12, UniProt P0AE18).
T1 sequence (P0AE18 whole entry): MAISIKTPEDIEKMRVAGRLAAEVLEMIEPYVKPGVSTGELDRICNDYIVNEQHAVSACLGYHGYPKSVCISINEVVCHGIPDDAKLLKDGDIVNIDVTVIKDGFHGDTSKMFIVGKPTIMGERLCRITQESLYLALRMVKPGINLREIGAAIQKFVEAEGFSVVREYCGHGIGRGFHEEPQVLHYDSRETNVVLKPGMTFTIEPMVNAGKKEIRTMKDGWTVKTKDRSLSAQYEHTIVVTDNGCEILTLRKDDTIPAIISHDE
Nature of the series: Inhibition of C-terminal poly-His-tagged Escherichia coli MetAP expressed in Escherichia coli BL21(DE3) incubated for 30 mins before MGMM substrate addition by fluorescence assay. As to conditions: for pIC50: read-out: IC50.

Another series concerns HaCaT. Nature of the series: Cytotoxicity against human HaCaT cells at 1.6 to 100 ug/ml after 72 hrs by crystal violet assay. It is filed as cell-based.
The target of series [5] is Methionine aminopeptidase 1 (Homo sapiens, UniProt P53582). The series is described as follows: Inhibition of N-terminal poly-His-tagged human MetAP-1 expressed in Escherichia coli BL21(DE3) incubated for 30 mins before MGMM substrate addition by fluorescence assay.
The nature of series [6]: Cytotoxicity against human Flow 2002 cells at 1.6 to 100 ug/ml after 72 hrs by crystal violet assay. It counts as cell-based. As to conditions: flow 2002, 72 h.
A further series relates to Escherichia coli. The series is described as follows: Antimicrobial activity against Escherichia coli BL21(DE3) assessed as inhibition of bacterial growth at 200 uM incubated at 37 degC for 7 hrs. Particulars: for inhibition at 200 µM: BL21-DE3, 7 h. It counts as functional.
Another series concerns MeWo. The series is described as follows: Cytotoxicity against human MeWo cells at 1.6 to 100 ug/ml after 72 hrs by crystal violet assay. It is filed as functional, cell-based.
The test system of the next series is Ca-Ski. The series is described as follows: Cytotoxicity against human CaSki cells at 1.6 to 100 ug/ml after 72 hrs by crystal violet assay. It is filed as functional, cell-based.
A further series deals with SW707. The series is described as follows: Cytotoxicity against human SW707 cells at 1.6 to 100 ug/ml after 72 hrs by crystal violet assay. It counts as functional, cell-based.

Sequence of Methionine aminopeptidase 2 (P50579 whole entry): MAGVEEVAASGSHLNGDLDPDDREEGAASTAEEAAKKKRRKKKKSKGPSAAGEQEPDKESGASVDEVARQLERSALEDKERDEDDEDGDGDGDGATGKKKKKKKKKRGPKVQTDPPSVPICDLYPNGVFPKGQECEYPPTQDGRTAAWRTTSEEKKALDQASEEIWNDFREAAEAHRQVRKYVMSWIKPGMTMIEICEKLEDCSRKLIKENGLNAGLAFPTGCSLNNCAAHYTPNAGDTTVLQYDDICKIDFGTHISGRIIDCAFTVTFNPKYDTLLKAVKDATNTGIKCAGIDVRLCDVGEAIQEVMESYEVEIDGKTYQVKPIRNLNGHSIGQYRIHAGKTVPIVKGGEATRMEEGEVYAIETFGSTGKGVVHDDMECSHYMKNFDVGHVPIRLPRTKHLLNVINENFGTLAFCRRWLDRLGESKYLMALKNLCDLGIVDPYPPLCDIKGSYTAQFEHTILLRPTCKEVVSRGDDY

As for `Cc1cc(C)c2c(c1)C(=O)C(CN(C)C)CC2.Cl` (stereo not given), the result in the series with A-431, in the series with Calu-6, in the series with BT-474, in the series on CAPAN-1, with A 172 and in the series with MeWo was Active. Moreover, the result in the series with Ca-Ski and with SW707 was Active. Further, the IC50 result in [1], in [3] and in [5] was “Not Active” each time. In addition, in series [2], the half-life at 250 µM was found to be 866 min. Further, the pIC50 in series [4] was 4.34. Besides, the Activity entry (in the series with HaCaT; in series [6]) was “Toxic” each time. In addition, the inhibition at 200 µM in the series with Escherichia coli is 56%.

Regarding `CN(C)CC1CCc2sccc2C1=O.Cl` (stereo not given), the result in the series with A-431, with Calu-6, in the series with BT-474, with CAPAN-1, in the series with A 172 and in the series on MeWo was Active. Also, the outcome in the series on Ca-Ski and with SW707 was Active. Besides, the IC50 entry in series [1], in series [3] and in series [5] was “Not Active” in each case. In series [2], the half-life at 250 µM was determined as 6930 min. In addition, the pIC50 in series [4] was 4.22. In addition, the Activity result (in the series with HaCaT; in [6]) was “Toxic” each time. In addition, in the series with Escherichia coli, the inhibition at 200 µM amounted to 10%.

With `COc1ccc(C(=O)CCN2CCCCC2)cc1.Cl`, the result in the series with A-431, in the series on Calu-6, with BT-474, in the series on CAPAN-1, in the series on A 172 and with MeWo was Active. In addition, the outcome with Ca-Ski and with SW707 was Active. Also, the IC50 result in series [1], in series [3], in [4] and in series [5] was “Not Active” in each case. In addition, the Activity entry (in the series with HaCaT; in series [6]) was “Toxic” in each case. For the same compound, the inhibition result in the series with Escherichia coli was “inactive”.

On to `CN(C)CCC(=O)c1ccccc1.Cl`, for which the result with A-431, with Calu-6, in the series on BT-474, with CAPAN-1, in the series on A 172 and in the series with MeWo was Active. The outcome in the series on Ca-Ski and in the series with SW707 was Active. The IC50 result in series [1], in series [3], in series [4] and in series [5] was “Not Active” in each case. Moreover, the Activity result (with HaCaT; in series [6]) was “Toxic” throughout. Moreover, the inhibition result in the series with Escherichia coli was “inactive”.

As for `CCC(CN(C)C)C(=O)c1ccccc1.Cl` (stereo not given), the outcome in the series with A-431, in the series on Calu-6, in the series with BT-474, with CAPAN-1, with A 172 and in the series with MeWo was Active. The outcome in the series on Ca-Ski and in the series on SW707 was Active. The IC50 entry in series [1], in series [3], in series [4] and in [5] was “Not Active” throughout. The t1/2 entry in series [2] is reported as “Stable”. Besides, the Activity result (with HaCaT; in series [6]) was “Toxic” each time. In addition, in the series on Escherichia coli, the inhibition entry was “inactive”.

For the compound `COc1cccc(C(=O)CCN2CCCCC2)c1.Cl`, the outcome with A-431, in the series with Calu-6, in the series on BT-474, with CAPAN-1, in the series on A 172 and in the series on MeWo was Active. For the same compound, the result in the series on Ca-Ski and in the series on SW707 was Active. In addition, the IC50 result in series [1], in [3], in [4] and in [5] was “Not Active” in each case. In series [2], the t1/2 entry is on record as “Stable”. The Activity result (in the series with HaCaT; in series [6]) was “Toxic” each time. The inhibition result in the series on Escherichia coli was “inactive”.

`COc1cc2c(cc1OC)C(=O)C(CN(C)C)C2.Cl` (stereo not given): the outcome in the series on A-431, with Calu-6, with BT-474, with CAPAN-1, with A 172 and in the series with MeWo was Active. Besides, the outcome with Ca-Ski and in the series with SW707 was Active. Moreover, the IC50 entry in series [1] and in [5] was “Not Active” throughout. The half-life at 250 µM in series [2] was found to be 56 min. The pIC50 in series [3] is 4.72; in series [4] it was 5.77. Moreover, the Activity entry (in the series with HaCaT; in series [6]) was “Toxic” each time. For the same compound, the inhibition at 200 µM with Escherichia coli was 17%.

Take `C=C1Cc2cc(OC)c(OC)cc2C1=O`: the outcome in the series with A-431, in the series with Calu-6, with BT-474, with CAPAN-1, with A 172 and with MeWo was Active. Besides, the result with Ca-Ski and in the series with SW707 was Active. Also, the IC50 entry in series [1] and in series [5] was “Not Active” each time. Further, the pIC50 in series [3] is 4.72; in series [4] it was 6.15. The Activity result (in the series on HaCaT; in [6]) was “Toxic” in each case. Moreover, the inhibition at 200 µM with Escherichia coli came to 25%.

For `COc1ccc(C(=O)CCN(C)C)cc1.Cl`, the result in the series with A-431, in the series with Calu-6, in the series with BT-474, with CAPAN-1, with A 172 and with MeWo was Active. In addition, the outcome in the series with Ca-Ski and with SW707 was Active. Besides, the IC50 result in series [1], in [3], in series [4] and in series [5] was “Not Active” in each case. Moreover, the Activity entry (in the series with HaCaT; in [6]) was “Toxic” throughout. The inhibition result in the series with Escherichia coli is “inactive”.

For the compound `Cc1ccc2c(c1)CC(CN(C)C)C2=O.Cl` (stereo not given), the outcome in the series with A-431, with Calu-6, in the series on BT-474, in the series with CAPAN-1, with A 172 and in the series on MeWo was Active. Moreover, the outcome with Ca-Ski and in the series with SW707 was Active. For the same compound, the IC50 entry in [1] is reported as “Not Active”. For the same compound, the half-life at 250 µM in [2] is 24 min. Besides, the negative-log IC50 (pIC50) in series [3] is 4.49; in [4] it was 5.96. Besides, the Activity result (with HaCaT; in series [6]) was “Toxic” in each case. For the same compound, the inhibition at 200 µM in the series on Escherichia coli was found to be 100%.

As to `CN(C)CC1Cc2cc(Br)ccc2C1=O.Cl` (stereo not given), the result with A-431, in the series on Calu-6, with BT-474, in the series with CAPAN-1, in the series on A 172 and with MeWo was Active. Besides, the result with Ca-Ski and in the series on SW707 was Active. In addition, the IC50 entry in series [1] is reported as “Not Active”. In addition, the half-life at 250 µM in series [2] is 6 min. Moreover, the results for the negative logarithm of the IC50 (pIC50) in series [3] and in series [4] were 5.11 and 6.14, respectively. Besides, the Activity entry (with HaCaT; in series [6]) was “Toxic” each time. In addition, the inhibition at 200 µM in the series with Escherichia coli is 57%.

One may read the half-life as how long it takes for the measured level to halve. As a reminder, the pIC50 is the IC50 on a negative log10 scale, so that one unit is a factor of ten. By inhibition is commonly meant the change of the read-out against control, counted positive when it falls.
